In patent US10966995B2, “Use of secoisolariciresinol diglucosides (SDGS) and related compounds for protection against radiation and chemical damage” (THE TRUSTEES OF THE UNIVERSITY OF PENNSYLVANIA, priority 2014, dated 2021):

Experiments:
[1] = system: murine primary lung epithelial cells; assay: Morphological detection of apoptotic cells, epithelial cells; format: cell-based, mouse; conditions: SDG 50 μM pre-treatment; irradiated; 24 h; IR alone 13.9%
Experimental: Fibroblasts and endothelial cells were isolated from C57/bl6 mouse. For fibroblast isolation, mouse lungs were harvested, minced, and incubated with dispase (2 mg/ml) for 45 minutes. Pieces were plated out and fibroblasts were cultured as described previously and used between passages 3 and 10. Pulmonary microvascular endothelial cells (PMVEC) were isolated from murine lungs as described previously. Briefly, freshly harvested mouse lungs were treated with collagenase followed by isolation of cells by adherence to magnetic beads coated with mAb to platelet endothelial cell adhesion molecule (PECAM). […]
Apoptotic cells are morphologically characterized by condensation of nucleus and cytoplasm, membrane blebbing, cell shrinkage, and breakdown of nuclear DNA, first in large segments and subsequently in nucleosomal fragments and finally formation of well-enclosed apoptotic bodies. Percentage of cells undergoing apoptosis was determined microscopically from the slides used for micronuclei detection (cytogenetic damage). At least, 500 cells were counted for each experiment (experiment done twice) and percent apoptotic cells were determined as follows: % Cell Death=Na/Nt×100, where Na is the number of cells with apoptotic bodies and Nt is the total number of cells analyzed. Gene Expression Analysis by Quantitative Real Time PCR (qPCR)

[2] = system: mouse peritoneal macrophages; assay: Asbestos-exposed peritoneal macrophages: oxidative/nitrosative stress and cytokine secretion; format: cell-based; conditions: 20 μg/cm^2 asbestos; 25 and 50 μM SDG 3-8 hours post exposure; p<0.05
Experimental: To test the hypothesis that the flaxseed lignan SDG will decrease asbestos-induced inflammation, and oxidative and nitrosative stress, mouse peritoneal macrophages were exposed to varying concentrations of crocidolite asbestos fibers ([…]). At variable times post asbestos exposure (3, 4, 6, and 8 hours), cells were incubated with SDG (50 μM) and supernatants collected 24 hours later to detect inflammatory cytokine secretion and nitrosative/oxidative stress (FIG. 49).
(§1) SDG given to macrophages several hours post exposure to asbestos decreases oxidative stress (FIGS. 52A-52B). Female C57/Bl6 mice were injected with 2 mL of thioglycollate and peritoneal macrophages harvested after 3 days. 2 million cells per well were plated in a 6 well plate and exposed to 20 μg/cm^2 asbestos. Cells were treated with 25 or 50 μM SDG (synthetic SDG) 3, 4, 6, or 8 hours post-asbestos exposure. Cells were harvested 24 hours post-asbestos exposure. Analysis performed on frozen supernatant samples.
as §1, with “Given” for “given”, “Macrophages Several Hours Post Exposure to Asbestos Decreases Nitrosative Stress (FIGS. 53A-53B). To evaluate of SDG in blunting nitrosative stress in cells” for “macrophages several hours”, “post” for “post exposure to”, “exposure, female” for “decreases oxidative stress (FIGS. 52A-52B). Female”
(§2) SDG Given to Macrophages Several Hours Post Exposure to Asbestos Decreases inflammatory cytokine secretion (IL-1β) (FIGS. 54A-54B). To evaluate SDG in blunting inflammatory cytokine secretion (IL-1β) in cells post asbestos exposure, female C57/Bl6 mice were injected with 2 mL of thioglycollate and peritoneal macrophages harvested after 3 days 2 million cells per well were plated in a 6 well plate and exposed to 20 μg/cm^2 asbestos. Cells were treated with 25 or 50 μM SDG (synthetic SDG) 3, 4, 6, or 8 hours post-asbestos exposure. Cells were harvested 24 hours post-asbestos exposure. Analysis performed on fresh supernatant samples.
as §2, with “(TNF-α)” for “(IL-1β)”, “55A-55B).” for “54A-54B).”, “days.” for “days”, “Cells were harvested 24 hours post-asbestos exposure. Analysis performed on fresh supernatant samples.” left out

human epithelial cells = assay: BaP-induced oxidative DNA damage (gamma-H2AX levels); format: cell-based; conditions: SDG 5, 10, 25, 50 and 100 μM
Description: Similarly, SDG prevents genotoxic stress in human epithelial cells exposed to BaP. Exposure of cells to a potent carcinogen such as BaP, induces genotoxic stress as indicated by increased levels of p53 protein (FIG. 25). […] SDG also prevents oxidative DNA damages in human epithelial cells exposed to BaP. Exposure of cells to a potent carcinogen such as BaP, induces oxidative DNA damage as indicated by increased levels of gamma-H2AX, a marker for double-stranded DNA breaks (FIG. 26). […] Furthermore, SDG prevents DNA adduct formation in human epithelial cells exposed to BaP. Exposure of cells to a potent carcinogen such as BaP, induces the formation of DNA adducts (FIG. 27). DNA adducts are pieces of DNA covalently linked to a carcinogen and is directly linked to the development of malignancy. The DNA adduct levels is decreased by the presence of SDG or its metabolites ED and EL given alone or in combination.

[3] = typical range, earlier work; read-out: EC50 values for free radical scavenging and antioxidant effects; cited from earlier work
[4] = system: Nrf2-regulated antioxidant enzymes (AOE); assay: SDG dosing study: antioxidant enzyme expression in lung after oral gavage; format: in vivo, mouse
Experimental: SDG doses of 5, 25, 50 and 100 mg/Kg body weight were administered orally to mice (n=5 per dose) and 4 hours later tissues were collected for analysis. Plasma concentrations of SDG and its bioactive metabolites ED, EL and SECO were analyzed by liquid chromatography and mass spectrometry and are expressed in ng/mL (FIG. 39) while gene expression levels of Nrf2-regulated antioxidant enzymes (AOE), an intracellular target of SDG and its metabolites, were determined in lung tissues from the same animals using qRT-PCR (FIG. 40). Gene expression levels of HO1, NQO1 and GST, increased 2-3 fold with as little as 5 mg SDG/Kg and reached an average of 6-fold increase over baseline with 100 mg/Kg SDG.

mouse epithelial cells = assay: BaP-induced ROS generation (redox-sensitive fluorescence dye); format: cell-based; conditions: 10 or 20 μM BaP; 0.1-5 μM SDG; 2 hours
Experimental: Exposure of murine epithelial cells to the tobacco and environmental carcinogen benzo-alpha-pyrene (BaP) induces damaging reactive oxygen species (ROS) as detected by a redox-sensitive fluorescence dye (FIG. 23). As early as 2 hours, post exposure to the carcinogen, a robust increase of fluorescence intensity indicates ROS generation in cells.

## COc1cc(C[C@@H](CO[C@@H]2O[C@H](CO)[C@@H](O)[C@H](O)[C@H]2O)[C@H](CO[C@@H]2O[C@H](CO)[C@@H](O)[C@H](O)[C@H]2O)Cc2ccc(O)c(OC)c2)ccc1O [SDG, secoisolariciresinol diglucoside]
[1]
  Apoptotic cells: 9.9%±1.08
[2]
  IL-1β levels: significantly decreased
  Malondialdehyde (MDA) levels, lipid peroxidation: significantly decreased
  Nitrite, marker for nitrosative stress: significantly decreased
  TNF-α levels: significantly decreased
Human epithelial cells
  gamma-H2AX levels: mitigated dose-dependently
[3]
  EC50: 130 to 200 µM
[4]; 5 mg SDG/Kg oral, 4 hours
  Gene expression levels of HO1, NQO1 and GST in lung, increase: 2-3 fold
[4]; 100 mg/Kg SDG oral, 4 hours
  Gene expression levels of HO1, NQO1 and GST in lung, average increase over baseline: 6 fold
[4]; oral SDG dosing study
  Protein levels in lung tissues: lower but yet significant increase
Mouse epithelial cells
  ROS: negligible levels
